For this experiment, the target named is T1, Dimer of Gag-Pol polyprotein [501-599,Q508K,L534I,L564I,C568A,C596A] (Human immunodeficiency virus 1, UniProt P03367, C568A/C596A/L534I/L564I/Q508K).
T1 construct: 501-599
Nature of the experiment: Protease Inhibition Assay. To be noted: pH 6.4; 25 °C. The procedure: The Ki values were determined using fluorogenic substrate, 2-(aminobenzoyl)-Thr-Ile-Nle-Phe(p-NO2)-Gln-ArgNH2. A standard curve relating changes in fluorescent intensity to changes in concentration of product was used to convert fluorescent changes into molar velocities. The amount of cleavage was determined by HPLC.

SMILES strings stand for the structures.

By Ki is commonly meant the dissociation constant of the complex between target and ligand, obtained from inhibition or displacement. Low values mean higher affinity, high ones lower affinity. `COc1ccc(S(=O)(=O)N(CC2CCCC2)C[C@@H](O)CN2C(=O)COC[C@@H]2Cc2ccccc2)cc1` returned a Ki of 1000 nM.

Turning to `COc1ccc(S(=O)(=O)N(CC2CCCC2)C[C@@H](O)CN2C(=O)C3(CCOCC3)OC[C@@H]2Cc2ccccc2)cc1` [(2S)-3-[(3S)-3-benzyl-5-oxo-1,9-dioxa-4-azaspiro[5.5]undecan-4-yl]-N-(cyclopentylmethyl)-2-hydroxy-N-(4-methoxyphenyl)propane-1-sulfonamido], the Ki is 23 nM.

The values above are taken from BindingDB's records for doi:10.1016/j.bmcl.2006.07.014 (Glaxosmithkline, 2006).
